Several values for one entry are separate records, joined by “and”; a condition that tells them apart may be missing. Identical values can stand only once. Like-named read-outs stand apart in the source and are kept apart here.
Key:
UGT2B7 = test system: UGT2B7; design: method as in PMID 27916843; settings: read-out: Ki towards UGT2B7; cited from earlier work
UGT1A8 = settings: cited from earlier work
[1] = Plasma pharmacokinetics in rats after a 30-min intravenous infusion of Kang-Ai injection; assay type: in vivo, Sprague–Dawley rats; settings: male, Sprague-Dawley, in vivo; for clearance / Vd: rat; for clearance: read-out: CLtot, p (converted)
How it was run: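 Fasted male Sprague–Dawley rats (250 ± 20 g) got a single 30-min tail-vein infusion of Kang-Ai injection at 6 mL/kg. Jugular blood was sampled from 5 min to 12 h for plasma. Parameters came from non-compartmental analysis (trapezoidal AUC), n = 3.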

[2] = Urinary (renal) excretion in rats after a 30-min infusion of Kang-Ai injection; assay type: in vivo, Sprague–Dawley rats; settings: Kang-Ai injection 6 mL/kg iv
How it was run: (§1)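 Urine collected in metabolic cages at 0–4, 4–8, 8–12 h and bile at 0–3, 3–6, 6–9, 9–12 h after infusion start, weighed and frozen at −80 °C. Non-compartmental analysis; CLR and CLB as cumulative urinary or biliary amount divided by plasma AUC0-∞, fe-U and fe-B as cumulative amount/dose; mean ± SD (n = 3).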

[3] = Biliary (hepatobiliary) excretion in rats after a 30-min infusion of Kang-Ai injection; assay type: in vivo, Sprague–Dawley rats; settings: rat bile 0–12 h; Kang-Ai injection 6 mL/kg iv
How it was run: as §1

[4] = Protein binding assay (equilibrium dialysis); assay type: in vitro ADME, rat; settings: rat plasma; equilibrium dialysis 24 h, 37 °C; 2 μmol/L alkaloids, 4 μmol/L saponins; read-out: fu-plasma (unbound fraction)
Experimental: Binding of circulating alkaloids and saponins to rat plasma was measured by equilibrium dialysis using Spectra/Por 2 dialysis membranes (molecular weight cutoff, 12–14 kDa; Rancho Dominguez, CA, USA) as described. After equilibrating for 24 h at 55 rpm and 37 °C, the dialysate and the plasma were sampled for analysis. […] The concentrations of tested matrine, oxysophocarpine and oxymatrine were 2 μmol/L, while those of astragaloside IV, III, and ginsenosides Rh1, Rg2, Rg1, Rf, Re, Rd, Rc, Rb1, Rb2, notoginsenosides R1, R2, were 4 μmol/L. The unbound fraction (fu-plasma) in rat plasma was calculated as follow: fu-plasma = Cd/Cp × 100%, where the Cd and Cp values were the concentrations of each analyte in the dialysate sample and in the post-dialysis plasma sample, respectively.

[5] = Stability tests of analytes in rat plasma QC samples; assay type: in vitro ADME; settings: rat plasma
Experimental: […] The dilution integrity was investigated by analyzing six replicate samples with each analyte, and each analyte were diluted 10-fold with blank rat matrix. Furthermore, the diluted samples were analyzed using freshly prepared calibration curve to calculate RE and RSD, which should be no more than ± 15% as criterion.

## CC(C)(O)[C@@H]1CC[C@](C)([C@H]2[C@@H](O)C[C@@]3(C)[C@@H]4C[C@H](O)[C@H]5C(C)(C)[C@@H](O)CC[C@@]56C[C@@]46CC[C@]23C)O1 [cycloastragenol]
UGT2B7
  Ki: 21 µM
UGT1A8
  Ki: 0.034 µM

## O=C1C=CC[C@@H]2[C@H]3CCC[N+]4([O-])CCC[C@@H](CN12)[C@@H]34 (stereo partly shown) [Compound A2, Oxysophocarpine]
[1]; rat plasma, 30-min iv infusion of Kang-Ai injection 6 mL/kg, read-out: Cmax
  Cmax: 170 ± 27.4 nM
[1]; rat plasma, 30-min iv infusion of Kang-Ai injection 6 mL/kg, read-out: t1/2 (converted)
  half-life: 1.78 ± 1.55 h
[1]; 30-min iv infusion of Kang-Ai injection 6 mL/kg, Table 1 unit
  clearance: 0.205 mL/min
[1]; 30-min iv infusion of Kang-Ai injection 6 mL/kg, Table 1 unit, read-out: VSS
  Vd: 0.0252 ± 0.0148 L
[1]; Kang-Ai injection 6 mL/kg iv
  clearance: 0.205 mL/min/kg
[1]; Kang-Ai injection 6 mL/kg iv, read-out: VSS (Vd)
  Vd: 0.0252 L/kg
[2]; male, Sprague-Dawley, in vivo, rat, read-out: CLR (renal excretory clearance) (converted)
  CL renal: 0.0792 mL/min
[2]; rat urine 0–12 h
  fe-U,0–12h (fraction of dose excreted into urine): 38.60% and 38.60 ± 11.22%
[2]; rat urine + bile, 0–12 h
  fraction of dose excreted unchanged via renal plus hepatobiliary excretion (sum of fe-U and fe-B): exceeded 90%
[3]
  fe-B,0–12h (fraction of dose excreted into bile): 51.92% and 51.92 ± 8.98%
[4]
  fraction unbound at 24 h: 0.912 ± 0.0495
[5]; nominal conc. 20 nM
  At -80 °C for 48 h, Mean±SD: 21.90 ± 0.32 nM
  At -80 °C for 48 h, RE: 10.73%
  Extracted samples at 8 °C for 18 h, Mean±SD: 22.58 ± 0.11 nM
  Extracted samples at 8 °C for 18 h, RE: 13.22%
  Short-term stability at room temperature for 6 h, Mean±SD: 20.94 ± 1.33 nM
  Short-term stability at room temperature for 6 h, RE: 12.22%
  Three freeze-thaw cycles (-80 °C ↔ 23 °C), Mean±SD: 22.63 ± 0.15 nM
  Three freeze-thaw cycles (-80 °C ↔ 23 °C), RE: 13.81%
[5]; nominal conc. 100 nM
  At -80 °C for 48 h, Mean±SD: 112.64 ± 0.85 nM
  At -80 °C for 48 h, RE: 13.54%
  Extracted samples at 8 °C for 18 h, Mean±SD: 108.59 ± 6.59 nM
  Extracted samples at 8 °C for 18 h, RE: 14.25%
  Short-term stability at room temperature for 6 h, Mean±SD: 103.12 ± 8.16 nM
  Short-term stability at room temperature for 6 h, RE: 12.17%
  Three freeze-thaw cycles (-80 °C ↔ 23 °C), Mean±SD: 103.40 ± 9.41 nM
  Three freeze-thaw cycles (-80 °C ↔ 23 °C), RE: 12.06%
[5]; nominal conc. 400 nM
  At -80 °C for 48 h, Mean±SD: 437.15 ± 14.08 nM
  At -80 °C for 48 h, RE: 11.61%
  Extracted samples at 8 °C for 18 h, Mean±SD: 432.22 ± 7.29 nM
  Extracted samples at 8 °C for 18 h, RE: 9.98%
  Short-term stability at room temperature for 6 h, Mean±SD: 439.31 ± 14.14 nM
  Short-term stability at room temperature for 6 h, RE: 12.94%
  Three freeze-thaw cycles (-80 °C ↔ 23 °C), Mean±SD: 418.53 ± 37.48 nM
  Three freeze-thaw cycles (-80 °C ↔ 23 °C), RE: 14.91%
